Like-named read-outs stand apart in the source and are kept apart here.

In series [1] the test system is D. melanogaster w^1118 females. Conditions: in vivo. On the procedure:
(§1) All experiments were conducted with D. melanogaster w^1118 females (Bloomington Drosophila Stock Center) kept at consistent conditions at 25° C., 55% humidity, and ambient light. […] Flies were transferred to new vials every other day. […] These solutions were prepared fresh before each batch of media preparation and were added to warmed, liquefied standard fly food (prepared with agar, cornmeal, sucrose and yeast) and mixed thoroughly prior to pouring into vials. Food was prepared fresh at least monthly.

Series [2] deals with D. melanogaster w^1118 females. The procedure:
as §1
Flies were followed according to the same protocol, counting dead flies daily until all were dead. Survival data were plotted using Kaplan Meier survival analysis^17, mean and median survival times were calculated, and the differences between the survival curves were tested using log rank statistics in SPSS.

The conditions of series [3]: in vivo; cited from earlier work.
The test system of series [4] is CG14691. It counts as in vivo, D. melanogaster. Conditions: 5 mM paraquat for six days, compared to untreated flies. The procedure:
as §1

Where [5] appears, read: 5 mM paraquat, nicotine 0 mg/ml.

With `CN1CCC[C@H]1c1cccnc1` [nicotine, 1-methyl-2-(3-pyridyl)pyrrolidone], the effect on survival entry in series [1] is reported as “did not have a notable effect on survival”. Also, in series [2] (in vivo), the “Nicotine restored survival of paraquat-treated flies” value is listed as ≤ 25%, the effect on survival result was “beneficial effect” and the “improvement of survival of paraquat-treated flies” value is “up to 25%”. Further, the Oral bioavailability result in series [3] is “about 30%”.

For `C[n+]1ccc(-c2cc[n+](C)cc2)cc1` [paraquat, Methyl viologen dichloride hydrate], the “rise in CG14691 expression” value in series [4] turned out to be 8%. Moreover, the shortening of lifespan in series [2] (5 mM paraquat vs untreated flies) is recorded as 63%. Also, in series [2] (setting [5]), the “Mean survival Days ± SE” value amounted to 14.0 ± 0.4 days and the “Median survival Days ± SE” value was found to be 16 ± 0.5 days. For the same compound, the “Reduction of median survival by paraquat” value in series [2] (in vivo) was “Paraquat reduced median survival by 63%”.

(Values after patent US20130324503A1, “Method of identifying and treating a person having a predisposition to or afflicted with Parkinson disease” (Health Research Inc., priority 2010, published 2013).)
